Assay results taken from PubChem BioAssay AID248 (DTP/NCI, 2004).
Toxic doses and inconclusive results are not listed. No stated cut-off is given here; in the data, active means T/C of 150% or more; inactive means T/C below 125%.

Tested on: L1210 leukemia ip in BDF1 mice, survival T/C
Assay: NCI In Vivo Anticancer Drug Screen. Data for tumor model L1210 Leukemia (intraperitoneal) in B6D2F1 (BDF1) mice
Conditions: endpoint: mean survival time, higher = longer survival
Summary of the method: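 Each compound was tested against a transplantable tumor grown in mice. The endpoint was survival, with treated animals benchmarked against vehicle controls as a simple ratio.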

[1] = dose: 100.0 mg/kg/injection, schedule: Q01DX009 (ip), vehicle: saline
[2] = dose: 200.0 mg/kg/injection, schedule: Q01DX009 (ip), vehicle: saline
[3] = dose: 400.0 mg/kg/injection, schedule: Q01DX009 (ip), vehicle: saline
[4] = dose: 12.5 mg/kg/injection, schedule: Q04DX003 (ip), vehicle: saline
[5] = dose: 50.0 mg/kg/injection, schedule: Q01DX009 (ip), vehicle: saline with Tween-80
[6] = dose: 100.0 mg/kg/injection, schedule: Q01DX001 (ip), vehicle: saline
[7] = dose: 200.0 mg/kg/injection, schedule: Q01DX001 (ip), vehicle: saline
[8] = dose: 400.0 mg/kg/injection, schedule: Q01DX001 (ip), vehicle: saline
[9] = dose: 100.0 mg/kg/injection, schedule: Q01DX009 (ip), vehicle: saline with Tween-80
[10] = dose: 100.0 mg/kg/injection, schedule: Q04DX003 (ip), vehicle: saline with Tween-80
[11] = dose: 200.0 mg/kg/injection, schedule: Q04DX003 (ip), vehicle: saline with Tween-80
[12] = dose: 200.0 mg/kg/injection, schedule: Q01DX009 (ip), vehicle: saline with Tween-80

Measured: T/C

COc1ccc(SC2=C(N(C)C(C)=O)C(=O)c3ccccc3C2=O)cc1
inactive: dose: 7.5 mg/kg/injection, schedule: Q01DX009 (ip), vehicle: Klucel (hydroxypropylcellulose) (HPC) 89 % of control | dose: 15.0 mg/kg/injection, schedule: Q01DX001 (ip), vehicle: Klucel (hydroxypropylcellulose) (HPC) 93 % of control | dose: 15.0 mg/kg/injection, schedule: Q01DX009 (ip), vehicle: Klucel (hydroxypropylcellulose) (HPC) 92 % of control | dose: 30.0 mg/kg/injection, schedule: Q01DX001 (ip), vehicle: Klucel (hydroxypropylcellulose) (HPC) 88 % of control | dose: 30.0 mg/kg/injection, schedule: Q01DX009 (ip), vehicle: Klucel (hydroxypropylcellulose) (HPC) 89 % of control

CC(CC=C(CCC(C)CC(C)(C)C)CCC(C)CC(C)(C)C)CC(C)(C)C (stereo not given)
inactive: dose: 75.0 mg/kg/injection, schedule: Q01DX001 (ip), vehicle: saline with Tween-80 99 % of control | dose: 150.0 mg/kg/injection, schedule: Q01DX001 (ip), vehicle: saline with Tween-80 100 % of control | dose: 300.0 mg/kg/injection, schedule: Q01DX001 (ip), vehicle: saline with Tween-80 97 % of control

CC(=O)Nc1nc(C)c(CCC#N)c(=O)[nH]1
inactive: [1] 101 % of control | dose: 100.0 mg/kg/injection, schedule: Q04DX003 (ip), vehicle: saline 96 % of control | [2] 101 % of control | dose: 200.0 mg/kg/injection, schedule: Q04DX003 (ip), vehicle: saline 91 % of control | [3] 95 % of control | dose: 400.0 mg/kg/injection, schedule: Q04DX003 (ip), vehicle: saline 101 % of control

CCc1[nH]c(=S)nc(-c2ccccc2)c1-c1ccc([N+](=O)[O-])cc1O
inactive: dose: 100.0 mg/kg/injection, schedule: Q04DX003 (ip), vehicle: Klucel (hydroxypropylcellulose) (HPC) 95 % of control | dose: 200.0 mg/kg/injection, schedule: Q04DX003 (ip), vehicle: Klucel (hydroxypropylcellulose) (HPC) 100 % of control | dose: 400.0 mg/kg/injection, schedule: Q04DX003 (ip), vehicle: Klucel (hydroxypropylcellulose) (HPC) 95 % of control

C=C(Br)CNCCCCCC
inactive: dose: 12.5 mg/kg/injection, schedule: Q01DX009 (ip), vehicle: Klucel (hydroxypropylcellulose) (HPC) 94 % of control | dose: 25.0 mg/kg/injection, schedule: Q01DX009 (ip), vehicle: Klucel (hydroxypropylcellulose) (HPC) 111 % of control

CCCC(C)OS(=O)(=O)c1ccc(Br)cc1 (stereo not given)
inactive: [1] 91 % of control | dose: 100.0 mg/kg/injection, schedule: Q04DX002 (ip), vehicle: saline with Tween-80 97 % of control | [2] 96 % of control | dose: 200.0 mg/kg/injection, schedule: Q04DX002 (ip), vehicle: saline with Tween-80 100 % of control | [3] 86 % of control | dose: 400.0 mg/kg/injection, schedule: Q04DX002 (ip), vehicle: saline with Tween-80 97 % of control

CC(C)/C=N/N(C)C(=O)Nc1cccc2ccccc12
inactive: dose: 50.0 mg/kg/injection, schedule: Q01DX001 (ip), vehicle: carboxymethylcellulose (CMC) 97 % of control | dose: 100.0 mg/kg/injection, schedule: Q01DX001 (ip), vehicle: carboxymethylcellulose (CMC) 94 % of control | dose: 200.0 mg/kg/injection, schedule: Q01DX001 (ip), vehicle: carboxymethylcellulose (CMC) 94 % of control | dose: 400.0 mg/kg/injection, schedule: Q01DX001 (ip), vehicle: carboxymethylcellulose (CMC) 90 % of control

N#Cc1ccc(P(=O)(O)O)cc1
inactive: dose: 75.0 mg/kg/injection, schedule: Q01DX001 (ip), vehicle: saline 102 % of control | dose: 150.0 mg/kg/injection, schedule: Q01DX001 (ip), vehicle: saline 94 % of control

COc1ccc(-n2c(=O)c(N=Nc3ccccc3OC)c(O)n(-c3ccccc3C)c2=S)cc1
inactive: dose: 100.0 mg/kg/injection, schedule: Q01DX001 (ip), vehicle: Klucel (hydroxypropylcellulose) (HPC) 98 % of control | dose: 200.0 mg/kg/injection, schedule: Q01DX001 (ip), vehicle: Klucel (hydroxypropylcellulose) (HPC) 101 % of control

CCN(CC)/N=C/CC(C)Nc1ccnc2cc(Cl)ccc12 (stereo not given)
inactive: dose: 3.12 mg/kg/injection, schedule: Q01DX009 (ip), vehicle: acetone 92 % of control | dose: 6.25 mg/kg/injection, schedule: Q01DX009 (ip), vehicle: acetone 97 % of control | [4] 93 % of control

CN(C)c1ccc(/C=N\NC(=S)Nc2ccccc2)c(Cl)c1
inactive: dose: 12.5 mg/kg/injection, schedule: Q01DX009 (ip), vehicle: saline with Tween-80 89 % of control | [4] 98 % of control | dose: 25.0 mg/kg/injection, schedule: Q01DX009 (ip), vehicle: saline with Tween-80 91 % of control | dose: 25.0 mg/kg/injection, schedule: Q04DX003 (ip), vehicle: saline 102 % of control | [5] 97 % of control | dose: 50.0 mg/kg/injection, schedule: Q04DX003 (ip), vehicle: saline 95 % of control | dose: 75.0 mg/kg/injection, schedule: Q01DX009 (ip), vehicle: saline with Tween-80 101 % of control | [6] 87 % of control | dose: 115.0 mg/kg/injection, schedule: Q01DX009 (ip), vehicle: saline with Tween-80 98 % of control | dose: 170.0 mg/kg/injection, schedule: Q01DX009 (ip), vehicle: saline with Tween-80 92 % of control | [7] 95 % of control | [8] 92 % of control

COc1ccc(C(=O)/C=C\c2ccc(OC)cc2O)cc1
inactive: dose: 50.0 mg/kg/injection, schedule: Q01DX001 (ip), vehicle: saline 100 % of control | [6] 103 % of control | [7] 97 % of control | [8] 103 % of control

CC1CN(C(=N)C#N)C(C)CN1C(=N)C#N (stereo not given)
inactive: [9] 92 % of control | [10] 109 % of control | [11] 104 % of control

CCCCC/C(=N\OC(=O)NC)C(F)(F)F
inactive: dose: 5.0 mg/kg/injection, schedule: Q01DX001 (ip), vehicle: saline 96 % of control | dose: 10.0 mg/kg/injection, schedule: Q01DX001 (ip), vehicle: saline 104 % of control | dose: 20.0 mg/kg/injection, schedule: Q01DX001 (ip), vehicle: saline 100 % of control | dose: 40.0 mg/kg/injection, schedule: Q01DX001 (ip), vehicle: saline 98 % of control | dose: 80.0 mg/kg/injection, schedule: Q01DX001 (ip), vehicle: saline 94 % of control

C=Cc1c2[n-]c(c1C)/C=c1\[n-]/c(c(C)c1C=C)=C\c1[n-]c(c(CCC(=O)O)c1C)/C=c1\[n-]/c(c(C)c1CCC(=O)O)=C\2.[Co]
inactive: dose: 100.0 mg/kg/injection, schedule: Q01DX009 (ip), vehicle: dextrose 88 % of control | dose: 100.0 mg/kg/injection, schedule: Q04DX003 (ip), vehicle: dextrose 94 % of control | dose: 200.0 mg/kg/injection, schedule: Q01DX009 (ip), vehicle: dextrose 94 % of control | dose: 200.0 mg/kg/injection, schedule: Q04DX003 (ip), vehicle: dextrose 104 % of control | dose: 400.0 mg/kg/injection, schedule: Q04DX003 (ip), vehicle: dextrose 94 % of control | dose: 1:1.0 dilution, schedule: Q04DX002 (ip), vehicle: saline 104 % of control | dose: 1:2.0 dilution, schedule: Q04DX002 (ip), vehicle: saline 104 % of control | dose: 1:4.0 dilution, schedule: Q04DX002 (ip), vehicle: saline 86 % of control

CCCC1(CCC)NC(=O)N(CC(=O)OCC)C1=O
inactive: [9] 94 % of control | [12] 96 % of control | dose: 400.0 mg/kg/injection, schedule: Q01DX009 (ip), vehicle: saline with Tween-80 102 % of control

O=C(CNC(=O)Nc1cccc(Cl)c1Cl)N/N=C/c1ccccc1O
inactive: [5] 104 % of control | [9] 101 % of control | [12] 96 % of control

CCOC(=O)c1cc(OCC)c2c(ccc3cc(OC)ccc32)n1
inactive: dose: 100.0 mg/kg/injection, schedule: Q01DX009 (ip), vehicle: Klucel (hydroxypropylcellulose) (HPC) 96 % of control | dose: 200.0 mg/kg/injection, schedule: Q01DX009 (ip), vehicle: Klucel (hydroxypropylcellulose) (HPC) 94 % of control | dose: 400.0 mg/kg/injection, schedule: Q01DX009 (ip), vehicle: Klucel (hydroxypropylcellulose) (HPC) 93 % of control

O=C1OC(=O)c2c1ccc1ccc(Cl)cc21
inactive: [10] 94 % of control | [11] 94 % of control | dose: 400.0 mg/kg/injection, schedule: Q04DX003 (ip), vehicle: saline with Tween-80 102 % of control
